According to PubChem BioAssay (NCI):
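Five concentrations, 48 hours, 96-well plates. The concentration for 50% growth inhibition is given as GI50. TGI marks complete inhibition of growth.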

What was measured:
Test in all cases: growth of human tumour cells (NCI), 48 h
[1] = test system: A498 renal
[2] = test system: OVCAR-3 ovarian
[3] = test system: SF-539 CNS
[4] = test system: PC-3 prostate
[5] = test system: HL-60(TB) leukemia
[6] = test system: BT-549 breast
[7] = test system: UACC-62 melanoma
[8] = test system: NCI-H522 lung
[9] = test system: SNB-19 CNS
[10] = test system: RPMI-8226 leukemia

SMILES	GI50 [1] [µM]	TGI [1] [µM]	GI50 [2] [µM]	TGI [2] [µM]	GI50 [3] [µM]	TGI [3] [µM]	GI50 [4] [µM]	TGI [4] [µM]	GI50 [5] [µM]	TGI [5] [µM]	GI50 [6] [µM]	TGI [6] [µM]	GI50 [7] [µM]	TGI [7] [µM]	GI50 [8] [µM]	TGI [8] [µM]	GI50 [9] [µM]	TGI [9] [µM]	TGI [10] [µM]	GI50 [10] [µM]
O=C(CN(C1CCCCC1)C1CCCCC1)Nc1ccc(S(=O)(=O)c2ccc(NC(=O)CN(C3CCCCC3)C3CCCCC3)cc2)cc1	11.4	27.9	0.279	1.02	0.37	1.46	0.985	2.35	1.02	3.23	0.506	1.91	0.595	2.05	0.394	1.24	0.656	2.18	–	–
O=C1CSC(Cc2nc3ccccc3[nH]2)=N1	–	10.4	–	31.6	–	43.1	–	–	–	97.5	–	–	–	37.7	–	40.4	–	80.8	> 100	–
COc1ccccc1NC(=O)C1=C(C)NC(C)=C(C(=O)Nc2ccccc2OC)C1c1ccc([N+](=O)[O-])cc1	–	> 100	–	> 100	–	> 100	–	–	–	> 100	–	–	–	> 100	–	> 100	–	> 100	> 100	–
O=S(O)CCCCSSCc1ccccc1CSSCCCCS(=O)O	–	> 100	–	25.2	–	64.2	–	–	–	36.2	–	–	–	25.3	–	18.7	–	> 100	45.8	–
CCCCCCCCCc1cc(=O)c2c(O)cccc2o1	–	–	–	> 100	–	> 100	–	–	–	93.9	–	–	–	> 100	–	> 100	–	> 100	> 100	–
CC(=O)Oc1ccccc1C(=O)N=C1[Se]CCN1C(=O)c1ccccc1OC(C)=O	1.02	2.4	–	–	1.06	3.21	1.06	4.88	0.708	8.47	–	–	1.04	2.84	1.22	2.7	1.23	4.31	8.46	2.94
Cc1cn2c(/C=C3/C(=O)Nc4ccccc43)c(-c3ccc(Cl)cc3)nc2s1	10.6	23.6	9.82	17.9	5.8	11.9	9.81	16.9	–	–	9.32	19.3	5.49	11.5	9.01	19.5	7.01	13.5	39.2	12.3
O=C(CCC/C(CC(=O)c1ccc(Br)cc1)=N\O)Nc1ccccc1	–	–	–	> 100	–	–	–	–	–	> 100	–	–	–	> 100	–	–	–	> 100	> 100	–
O=C(Nc1ccc([N+](=O)[O-])cc1)C1C(=O)C(=O)N(c2ccc([N+](=O)[O-])cc2)C1=O (stereo not given)	–	> 100	–	> 100	–	> 100	–	–	–	> 100	–	–	–	19.5	–	> 100	–	> 100	> 100	–
CCN(CC)CCOc1ccc(/C(=C(\C)c2ccc(F)c(OC)c2)c2ccc(Cl)cc2)cc1	–	–	2.26	4.6	2.45	4.74	2.11	4.62	2.69	6.43	2.67	5.13	2.71	5.06	2.73	5.79	2.83	5.17	6.3	2.6
CCOC(=O)C1N(S(=O)(=O)c2ccc(C)cc2)CCC12C(c1ccc(OC)cc1)NC1CCCCC12 (stereo not given)	–	> 100	–	> 100	–	> 100	–	–	–	> 100	–	–	–	> 100	–	> 100	–	> 100	> 100	–
CCOC(=O)CCc1c(C)c2c(OC(C)=O)cc(OC(C)=O)cc2oc1=O	–	–	–	83.3	–	> 100	–	–	–	> 100	–	–	–	–	–	> 100	–	> 100	–	–
NC1CCCC[C@H]1N.N[C@@H]1CCCC[C@@H]1N.O=C(P(=O)([O-])[O-])P(=O)([O-])[O-].[Pt+4].[Pt+4]	> 100	> 100	> 100	> 100	> 100	> 100	–	–	18.3	> 100	–	–	> 100	> 100	11.9	47.4	> 100	> 100	> 100	31.1
NC(N)=N/N=C/c1cc(Cl)cc(Cl)c1O	–	> 100	–	> 100	–	> 100	–	> 100	–	> 100	–	–	–	> 100	–	> 100	–	> 100	> 100	–
CCOC(=O)[C@H](CCCNC(=O)OC(C)(C)C)NCc1ccc(OC)c(OC)c1	–	> 100	–	> 100	–	> 100	–	–	–	> 100	–	–	–	> 100	–	> 100	–	> 100	–	–
Cc1cccc(NC(=O)/C=C/c2ccc(N(CCC#N)CCC#N)cc2C)c1	–	> 100	–	> 100	–	> 100	–	–	–	> 100	–	–	–	> 100	–	> 100	–	> 100	> 100	–
O=C(CSc1nnc(-c2ccccc2NC(=O)C(F)(F)F)c(=O)[nH]1)NC(=O)Nc1ccccc1	–	–	–	> 100	–	> 100	–	–	–	–	–	–	–	> 100	–	> 100	–	> 100	–	–
N#CC1Nc2ccccc2[C@@H](O)C1O (stereo not given in full)	–	–	–	> 100	–	> 100	–	> 100	–	> 100	–	–	–	> 100	–	–	–	–	> 100	–
O=C(CCCN1CC=C(n2c(=O)[nH]c3ccccc32)CC1)c1ccc(F)cc1	–	–	31.4	> 100	–	–	29	> 100	24.3	67.4	24.9	86.8	42.7	> 100	65.1	> 100	–	–	> 100	30.4
CCOC(=O)c1[nH]c(COC(C)=O)c(CCCOC(C)=O)c1CCCOC(C)=O	–	> 100	–	> 100	–	> 100	–	–	–	> 100	–	–	–	–	–	52.5	–	> 100	–	–
O=C(CN1CCCCC1)N1CCc2c([nH]c3ccccc23)C1c1cccnc1 (stereo not given)	–	> 100	–	> 100	–	> 100	–	–	–	> 100	–	–	–	> 100	–	> 100	–	> 100	> 100	–
O=C(O)Cc1c(O)ccc2ccccc12	–	> 100	–	> 100	–	> 100	–	> 100	–	–	–	> 100	–	> 100	–	> 100	–	> 100	> 100	–
